Where two headings read alike, the source gives them in different places.
What was measured:
[1] = system: chloroform-induced ventricular arrhythmias; assay: Chloroform-induced ventricular arrhythmias (fibrillation) in mice, intraperitoneal dose; details: for Number of Animals Protected: protected against CHCl3-induced ventricular fibrillation
From the text: Mice were given an intraperitoneal dose of the test compound. Twenty minutes after dose, they were suffocated in chloroform vapor.- When the animals stopped breathing, the chest was opened to inspect for fibrillation. If the heart was not fibrillating, it was prodded.
Signs of CNS toxicity were noted during the 20-minute interval between dosing and challenge.
"Protected" means number of animals protected against CHC13- induced ventricular fibrillation.

[2] = Alternative chloroform test on mice: ventricular tachycardia inhibition and ataxia; format: in vivo; details: mouse, in vivo
Procedure: (§1) In an alternative chloroform test on mice the ventricular tachycardia inhibition by the test compounds are observed. Thereby the test solution is given subcutaneous and the animal is observed for CNS-effects for 20 min. The mouse is put into a chamber with chloroform until it stops breathing (approx 30 sec.). The animal is then secured on a cork-board and ECG is monitored. If the ventricular rythm is less than 520 beats per min., the animal was protected against ventricular tachycardia. Groups of 10 animals were tested for each dose-level'and the ED50-values have been calculated therefrom. During the test the side-effect ataxia (incordination of movements) is observed.
(§2) In Table 5, as shown, the new compounds tested exerted antiarrhythmic effects also in this te-st.

[3] = system: chloroform induced ventricular tachy-cardia; assay: as above; format: in vivo; details: Mus musculus; sc.; mice, chloroform; groups of 10 animals per dose-level
Procedure: as §1, §2

[4] = system: ouabain-induced arrhythmias; assay: Ouabain-induced arrhythmias in anesthetized guinea-pigs; format: in vivo; details: for A-A EFFECT IN NUMBER OF ANIMALS: animals with antiarrhythmic effect / animals tested; for LOWEST FREQUENCY: frequency of ventricular premature beats after test solution; for ASYSTOLE: time of asystole under continued ouabain; for V-FIB: time of ventricular fibrillation under continued ouabain
Procedure: Guinea-pigs of either.sex (300-400 g) were anesthetized with urethane 1,4 g/kg i.p. and tracheotomized. ECG, lead II was picked up with needle electrodes and was registered continuously throughout the experiment. Two i.v. catheters were inserted: one for the administration of ouabain, the other for the test solution.
The experimental design for the study of antiarrhythmic activities is schematically shown in the head of Table 2. The arrhythmia was induced by automatic infusion of ouabain, 18 µg/kg/60" every two minutes for twelve minutes and thereafter 9 µg/kg/30" every two minutes throughout the whole experiment and the infusion was not stopped until asystole occurred. As soon as the frequency of ventricular premature beats (VPB) had passed 50 per cent, the test solution was given i.v. (0,2 ml/min) during 2 min. (see head of Table 2).

[5] = Conscious dogs with ligation of a coronary artery according to Harris: ectopics and convulsions; format: in vivo; details: in vivo
From the text: (§3) Male beagle dogs, 7-13 kg, undergo two days prior to the test a surgical ligation of a coronary artery. On the day of the test the conscious dog is secured in a canvas sling in a standing position and given increasing doses of the test compounds by intravenous administration. ECG, blood pressure etc are monitored and attention is paid to all CNS-effects. The dogs have almost 100 percent of ectopics prior to administration of the compound to be tested. Effects of the test drug on the frequency of ectopics are calculated from ECG. The accumulative end doses giving 50% and 90% reduction of ectopics as well as the ED50 values which give convulsions (side-effect) are measured and given below in Table 3. The value for convulsions is a mean value for 3-5 dogs.
(§4) x) The value given is the final value in a series of doses 0.5 + 1 + 2 + 4 + 8 mg/kg i.v. giving 50% reduction of ectopics. 30 min interval between doses.
(§5) Table 3: Antiarrythmic effect and CNS-effects of four β-receptor blockers, a membrane stabilizer, and ten new compounds with combined β-blocking and membrane stabilizing effect.

[6] = system: ectopics; assay: as above; format: in vivo; details: Canis lupus familiaris, iv.; for ED50: accumulative end dose giving 50% reduction of ectopics, read-out: Conscious dog Harris ligation Ectopics -50%; for ED90: accumulative end dose giving 90% reduction of ectopics, read-out: Conscious dog Harris ligation Ectopics -90%
From the text: as §3, §4, §5

[7] = dose 100 mg/kg intraperitoneal, 10 treated

Row | SMILES | Number of Animals Dead [1, 7] | Number of Animals Protected [1, 7] | ED50 [3] [mg/kg] | A-A EFFECT IN NUMBER OF ANIMALS ([4]; dose 0.1 mg/kg i.v.) | A-A EFFECT IN NUMBER OF ANIMALS ([4]; dose 0.3 mg/kg i.v.) | LOWEST FREQUENCY ([4]; dose 0.1 mg/kg i.v.) [%] | LOWEST FREQUENCY ([4]; dose 0.3 mg/kg i.v.) [%] | ASYSTOLE ([4]; dose 0.1 mg/kg i.v.) [min] | ASYSTOLE ([4]; dose 0.3 mg/kg i.v.) [min] | V-FIB ([4]; dose 0.1 mg/kg i.v.) [min] | V-FIB ([4]; dose 0.3 mg/kg i.v.) [min] | ED50 [6] [mg/kg] | ED90 [6] [mg/kg] | further results
1 | COCCc1ccc(OCC(O)CNCCc2ccc(O)cc2)cc1 (centres unmarked) [Ex. 2] | 0 | 8 | 3 | 7/7 | 6/6 | 25±7 | 5±2 | 27 ± 3 | 35 ± 3 | 20 ± 2 | 29 ± 2 | 4 | 8 | Number of Animals Convulsive ([1]; mouse, in vivo, ip, 100 mg/kg): 0; Number of Animals LRR ([1]; mouse, in vivo, ip, 100 mg/kg): 0; TD50 at 20 min ([2]; sc): > 13 mg/kg; TD50 ([5]; dog, iv): 8 mg/kg
2 | CC(C)NCC(O)COc1cccc2ccccc12 (centres unmarked) [Propranolol] | 0 | 10 | 0.6 | 6/7 | 6/6 | 9±5 | 4±2 | 35 ± 4 | 32 ± 5 | 30 ± 5 | 27 ± 6 | 1 | 3 | Number of Animals Convulsive ([1]; dose 100 mg/kg intraperitoneal, 10 treated, convulsions within 20 minutes after dosing): 10; Number of Animals LRR ([1]; dose 100 mg/kg intraperitoneal, 10 treated, loss of righting reflex): 1; TD50 at 20 min ([2]; sc., mice, observed for 20 min, read-out: Ataxia ED50): > 1 mg/kg; A-A EFFECT IN NUMBER OF ANIMALS ([4]; dose 0.03 mg/kg i.v.): 6/7; LOWEST FREQUENCY ([4]; dose 0.03 mg/kg i.v.): 29±5%; ASYSTOLE ([4]; dose 0.03 mg/kg i.v.): 29 ± 2 min; V-FIB ([4]; dose 0.03 mg/kg i.v.): 21 ± 3 min; TD50 ([5]; iv., conscious dog, mean value for 3-5 dogs, read-out: ED50 Convulsive): 8 mg/kg

— EP0007294A2, “Membrane stabilizing compounds having beta-receptor blocking activity, their preparation, method for treatment of arrhythmic conditions, and pharmaceutical preparations containing same” (priority 1978, dated 1980)
